Experimental data reported in the supplement of paper PMC11061612.

Experiments:
[1] = system: COR-L279 (Small Cell Lung Carcinoma); test: Bliss excess, mean over the matrix (fraction); higher = more synergy
Procedure, shortened: (§1)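 Cell lines grown in DMEM/F12 or RPMI with 10% FBS were plated in 1536-well plates and held 24 hours at 37°C, 5% CO2 before 72 hours of exposure to two-drug dose matrices, with DMSO typically at 0.2%. CellTiter-Glo 2.0 luminescence gave viability, which was converted to inhibition. Vehicle wells were set to 0 and blank wells to 1. Combination Emax is the second-highest inhibition in the matrix, and Bliss excess is the observed combination effect minus the expected EA + EB − EA·EB, where EA and EB are the single-agent effects.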

[2] = system: CW-2 (Colorectal Carcinoma); test: as above
Procedure, shortened: as §1

[3] = system: DMS-114 (Small Cell Lung Carcinoma); test: as above
Procedure, shortened: as §1

[4] = system: KU812 (Chronic Myelogenous Leukemia); test: as above
Procedure, shortened: as §1

[5] = system: KYSE-270 (Esophageal Squamous Cell Carcinoma); test: as above
Procedure, shortened: as §1

M059J (Glioblastoma) [6] = test: as above
Procedure, shortened: as §1

[7] = system: MN-60 (B-Lymphoblastic Leukemia); test: as above
Procedure, shortened: as §1

[8] = system: MOG-G-CCM (Low Grade Glioma); test: as above
Procedure, shortened: as §1

[9] = system: NCCIT (Other Solid Carcinomas); test: as above
Procedure, shortened: as §1

NCI-H2731 (Mesothelioma) [10] = test: as above
Procedure, shortened: as §1

[11] = system: NCI-H3122 (Lung Adenocarcinoma); test: as above
Procedure, shortened: as §1

[12] = system: NCI-H520 (Squamous Cell Lung Carcinoma); test: as above
Procedure, shortened: as §1

[13] = system: NCI-H526 (Small Cell Lung Carcinoma); test: as above
Procedure, shortened: as §1

[14] = system: NCI-H929 (Plasma Cell Myeloma); test: as above
Procedure, shortened: as §1

[15] = system: OCI-AML3 (Acute Myeloid Leukemia); test: as above
Procedure, shortened: as §1

SJSA-1 (Osteosarcoma) [16] = test: as above
Procedure, shortened: as §1

[17] = system: SK-GT-4 (Esophageal Adenocarcinoma); test: as above
Procedure, shortened: as §1

[18] = system: ST486 (Burkitt's Lymphoma); test: as above
Procedure, shortened: as §1

[19] = system: T-T (Esophageal Squamous Cell Carcinoma); test: as above
Procedure, shortened: as §1

[20] = system: VMRC-RCZ (Kidney Carcinoma); test: as above
Procedure, shortened: as §1

[21] = system: COR-L279 (Small Cell Lung Carcinoma); test: combination Emax (second highest fraction inhibited in the dose matrix, 72 h); higher = more inhibition; extreme values may be limits of the assay
Procedure, shortened: as §1

[22] = system: CW-2 (Colorectal Carcinoma); test: as above
Procedure, shortened: as §1

[23] = system: DMS-114 (Small Cell Lung Carcinoma); test: as above
Procedure, shortened: as §1

[24] = system: KU812 (Chronic Myelogenous Leukemia); test: as above
Procedure, shortened: as §1

[25] = system: KYSE-270 (Esophageal Squamous Cell Carcinoma); test: as above
Procedure, shortened: as §1

M059J (Glioblastoma) [26] = test: as above
Procedure, shortened: as §1

[27] = system: MN-60 (B-Lymphoblastic Leukemia); test: as above
Procedure, shortened: as §1

[28] = system: MOG-G-CCM (Low Grade Glioma); test: as above
Procedure, shortened: as §1

[29] = system: NCCIT (Other Solid Carcinomas); test: as above
Procedure, shortened: as §1

NCI-H2731 (Mesothelioma) [30] = test: as above
Procedure, shortened: as §1

[31] = system: NCI-H3122 (Lung Adenocarcinoma); test: as above
Procedure, shortened: as §1

[32] = system: NCI-H520 (Squamous Cell Lung Carcinoma); test: as above
Procedure, shortened: as §1

[33] = system: NCI-H526 (Small Cell Lung Carcinoma); test: as above
Procedure, shortened: as §1

[34] = system: NCI-H929 (Plasma Cell Myeloma); test: as above
Procedure, shortened: as §1

[35] = system: OCI-AML3 (Acute Myeloid Leukemia); test: as above
Procedure, shortened: as §1

SJSA-1 (Osteosarcoma) [36] = test: as above
Procedure, shortened: as §1

[37] = system: SK-GT-4 (Esophageal Adenocarcinoma); test: as above
Procedure, shortened: as §1

[38] = system: ST486 (Burkitt's Lymphoma); test: as above
Procedure, shortened: as §1

[39] = system: T-T (Esophageal Squamous Cell Carcinoma); test: as above
Procedure, shortened: as §1

[40] = system: VMRC-RCZ (Kidney Carcinoma); test: as above
Procedure, shortened: as §1

[41] = system: KP-3 (Pancreatic Carcinoma); test: Bliss excess, mean over the matrix (fraction); higher = more synergy
Procedure, shortened: as §1

[42] = system: KP-3 (Pancreatic Carcinoma); test: combination Emax (second highest fraction inhibited in the dose matrix, 72 h); higher = more inhibition; extreme values may be limits of the assay
Procedure, shortened: as §1
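Wherever Bliss excess, mean over the matrix is given: after 72 h of two-drug dosing.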

Cc1c2c(nn1C)CSCc1cc(n(C)n1)CSc1cc(c3ccccc3c1)OCCCc1c(C(=O)O)n(C)c3c-2c(Cl)ccc13 [AZD5991] + Nc1ccn([C@@H]2O[C@H](CO)[C@@H](O)C2(F)F)c(=O)n1 [Gemcitabine] (first compound max 1 µM, 7x7, partner max 0.3 µM)
Bliss excess [1]: -0.012
Bliss excess [2]: -0.0677
Bliss excess [3]: 0.07
Bliss excess [4]: -0.0709
Bliss excess [5]: -0.0129
Bliss excess (M059J (Glioblastoma) [6]): -0.0325
Bliss excess [7]: -0.0611
Bliss excess [8]: -0.0059
Bliss excess [9]: -0.0617
Bliss excess (NCI-H2731 (Mesothelioma) [10]): -0.0359
Bliss excess [11]: 0.0092
Bliss excess [12]: -0.0389
Bliss excess [13]: 0.0249
Bliss excess [14]: 0.0087
Bliss excess [15]: 0.0245
Bliss excess (SJSA-1 (Osteosarcoma) [16]): -0.0319
Bliss excess [17]: -0.042
Bliss excess [18]: 0.0089
Bliss excess [19]: 0.058
Bliss excess [20]: -0.001
combination Emax [21]: 0.975
combination Emax [22]: 0.613
combination Emax [23]: 0.908
combination Emax [24]: 0.842
combination Emax [25]: 0.965
combination Emax (M059J (Glioblastoma) [26]): 0.681
combination Emax [27]: 0.518
combination Emax [28]: 0.523
combination Emax [29]: 0.725
combination Emax (NCI-H2731 (Mesothelioma) [30]): 0.358
combination Emax [31]: 0.922
combination Emax [32]: 0.811
combination Emax [33]: 0.914
combination Emax [34]: 1
combination Emax [35]: 1
combination Emax (SJSA-1 (Osteosarcoma) [36]): 0.725
combination Emax [37]: 0.31
combination Emax [38]: 0.904
combination Emax [39]: 0.929
combination Emax [40]: 0.392

O=C(c1cc(Cc2n[nH]c(=O)c3ccccc23)ccc1F)N1CCN(C(=O)C2CC2)CC1 [Olaparib] + COc1nnc2ccc(N3CCC(c4ccc(OCCN5CCN(C)C(=O)[C@H]5C)cc4)CC3)nn12 [AZD5153] (first compound max 10 µM, 7x7, partner max 1 µM)
Bliss excess [1]: 0.0327
Bliss excess [2]: -0.0592
Bliss excess [3]: -0.13
Bliss excess [41]: -0.0554
Bliss excess [4]: -0.0778
Bliss excess [5]: 0.0235
Bliss excess (M059J (Glioblastoma) [6]): -0.0672
Bliss excess [7]: -0.0721
Bliss excess [8]: -0.0569
Bliss excess [9]: -0.0739
Bliss excess (NCI-H2731 (Mesothelioma) [10]): -0.0208
Bliss excess [11]: -0.0021
Bliss excess [12]: -0.0134
Bliss excess [13]: -0.0689
Bliss excess [14]: -0.0516
Bliss excess [15]: -0.0369
Bliss excess (SJSA-1 (Osteosarcoma) [16]): -0.0323
Bliss excess [17]: -0.0894
Bliss excess [18]: -0.0433
Bliss excess [19]: -0.0283
Bliss excess [20]: -0.0243
combination Emax [21]: 0.953
combination Emax [22]: 0.48
combination Emax [23]: 0.514
combination Emax [42]: 0.125
combination Emax [24]: 0.908
combination Emax [25]: 0.493
combination Emax (M059J (Glioblastoma) [26]): 0.718
combination Emax [27]: 0.733
combination Emax [28]: 0.51
combination Emax [29]: 0.66
combination Emax (NCI-H2731 (Mesothelioma) [30]): 0.362
combination Emax [31]: 0.596
combination Emax [32]: 0.591
combination Emax [33]: 0.926
combination Emax [34]: 0.911
combination Emax [35]: 1
combination Emax (SJSA-1 (Osteosarcoma) [36]): 0.539
combination Emax [37]: 0.426
combination Emax [38]: 0.897
combination Emax [39]: 0.48
combination Emax [40]: 0.248
